# Test results reported in patent US10287297B2, “Epoxyazulene derivatives useful for treating cancer and diabetes” (The United States of America, as represented by the …, priority 2015, dated 2019).
# Columns and labels:
# Format in all cases: cell-based
# HS 578T = assay: NCI 60 cell assay, breast HS 578T; details: Homo sapiens, 48 h; HS 578T (breast); drug exposure two days, SRB endpoint; read-out: GI-50 value
# Experimental: (§1) Samples were tested in the standard National Cancer Institute 60-cell line protocol. First, they were tested against all 60 cell lines in a single final concentration of 10 micromolar. Then, they were separately tested in five 10-fold dilutions. The drug exposure was two days, with an SRB endpoint.
# UACC-62 = assay: NCI 60 cell assay, melanoma UACC-62; details: Homo sapiens, 48 h; UACC-62 (melanoma); drug exposure two days, SRB endpoint; read-out: GI-50 value
# Experimental: as §1
# KM12 = assay: NCI 60 cell assay, colon KM12; details: Homo sapiens, 48 h, drug exposure two days, SRB endpoint, read-out: GI-50 value
# Experimental: as §1
# DU-145 = assay: NCI 60 cell assay, prostate DU-145; details: Homo sapiens, 48 h; DU-145 (prostate); drug exposure two days, SRB endpoint; read-out: GI-50 value
# Experimental: as §1
# SNB-75 = assay: NCI 60 cell assay, CNS SNB-75; details: Homo sapiens, 48 h; SNB-75 (CNS); drug exposure two days, SRB endpoint; read-out: GI-50 value
# Experimental: as §1
# HCC-2998 = assay: NCI 60 cell assay, colon HCC-2998; details: Homo sapiens, 48 h; HCC-2998 (colon); drug exposure two days, SRB endpoint; read-out: GI-50 value
# Experimental: as §1
# 786-0 = assay: NCI 60 cell assay, renal 786-0; details: Homo sapiens, 48 h; 786-0 (renal); drug exposure two days, SRB endpoint; read-out: GI-50 value
# Experimental: as §1
# CAKI-1 = assay: NCI 60 cell assay, renal CAKI-1; details: Homo sapiens, 48 h; CAKI-1 (renal); drug exposure two days, SRB endpoint; read-out: GI-50 value
# Experimental: as §1
# TK-10 = assay: NCI 60 cell assay, renal TK-10; details: Homo sapiens, 48 h; TK-10 (renal); drug exposure two days, SRB endpoint; read-out: GI-50 value
# Experimental: as §1
# NCI-H460 = assay: NCI 60 cell assay, NSCLC NCI-H460; details: Homo sapiens, 48 h, drug exposure two days, SRB endpoint, read-out: GI-50 value
# Experimental: as §1
# SK-MEL-28 = assay: NCI 60 cell assay, melanoma SK-MEL-28; details: Homo sapiens, 48 h; SK-MEL-28 (melanoma); drug exposure two days, SRB endpoint; read-out: GI-50 value
# Experimental: as §1
# M14 = assay: NCI 60 cell assay, melanoma M14; details: Homo sapiens, 48 h, drug exposure two days, SRB endpoint, read-out: GI-50 value
# Experimental: as §1
# SK-MEL-2 = assay: NCI 60 cell assay, melanoma SK-MEL-2; details: Homo sapiens, 48 h; SK-MEL-2 (melanoma); drug exposure two days, SRB endpoint; read-out: GI-50 value
# Experimental: as §1
# MALME-3M = assay: NCI 60 cell assay, melanoma MALME-3M; details: Homo sapiens, 48 h; MALME-3M (melanoma); drug exposure two days, SRB endpoint; read-out: GI-50 value
# Experimental: as §1
# SW-620 = assay: NCI 60 cell assay, colon SW-620; details: Homo sapiens, 48 h; SW-620 (colon); drug exposure two days, SRB endpoint; read-out: GI-50 value
# Experimental: as §1
# OVCAR-5 = assay: NCI 60 cell assay, ovarian OVCAR-5; details: Homo sapiens, 48 h; OVCAR-5 (ovarian); drug exposure two days, SRB endpoint; read-out: GI-50 value
# Experimental: as §1
# PC-3 = assay: NCI 60 cell assay, prostate PC-3; details: Homo sapiens, 48 h; PC-3 (prostate); drug exposure two days, SRB endpoint; read-out: GI-50 value
# Experimental: as §1
# T-47D = assay: NCI 60 cell assay, breast T-47D; details: Homo sapiens, T47D, 48 h; T-47D (breast); drug exposure two days, SRB endpoint; read-out: GI-50 value
# Experimental: as §1
# NCI-H23 = assay: NCI 60 cell assay, NSCLC NCI-H23; details: Homo sapiens, 48 h, drug exposure two days, SRB endpoint, read-out: GI-50 value
# Experimental: as §1
# RXF 393 = assay: NCI 60 cell assay, renal RXF 393; details: Homo sapiens, 48 h; RXF 393 (renal); drug exposure two days, SRB endpoint; read-out: GI-50 value
# Experimental: as §1
# OVCAR-8 = assay: NCI 60 cell assay, ovarian OVCAR-8; details: Homo sapiens, 48 h; OVCAR-8 (ovarian); drug exposure two days, SRB endpoint; read-out: GI-50 value
# Experimental: as §1
# A498 = assay: NCI 60 cell assay, renal A498; details: Homo sapiens, 48 h, drug exposure two days, SRB endpoint, read-out: GI-50 value
# Experimental: as §1
# SNB-19 = assay: NCI 60 cell assay, CNS SNB-19; details: Homo sapiens, 48 h; SNB-19 (CNS); drug exposure two days, SRB endpoint; read-out: GI-50 value
# Experimental: as §1
# MOLT-4 = assay: NCI 60 cell assay, leukemia MOLT-4; details: Homo sapiens, 48 h; MOLT-4 (leukemia); drug exposure two days, SRB endpoint; read-out: GI-50 value
# Experimental: as §1
# RPMI-8226 = assay: NCI 60 cell assay, leukemia RPMI-8226; details: Homo sapiens, 48 h; RPMI-8226 (leukemia); drug exposure two days, SRB endpoint; read-out: GI-50 value
# Experimental: as §1
# EKVX = assay: NCI 60 cell assay, NSCLC EKVX; details: Homo sapiens, 48 h, drug exposure two days, SRB endpoint, read-out: GI-50 value
# Experimental: as §1
# NCI-H522 = assay: NCI 60 cell assay, NSCLC NCI-H522; details: Homo sapiens, 48 h, drug exposure two days, SRB endpoint, read-out: GI-50 value
# Experimental: as §1
# SF-295 = assay: NCI 60 cell assay, CNS SF-295; details: Homo sapiens, 48 h; SF-295 (CNS); drug exposure two days, SRB endpoint; read-out: GI-50 value
# Experimental: as §1
# UACC-257 = assay: NCI 60 cell assay, melanoma UACC-257; details: Homo sapiens, 48 h; UACC-257 (melanoma); drug exposure two days, SRB endpoint; read-out: GI-50 value
# Experimental: as §1
# CCRF-CEM = assay: NCI 60 cell assay, leukemia CCRF-CEM; details: Homo sapiens, 48 h, drug exposure two days, SRB endpoint, read-out: GI-50 value
# Experimental: as §1
# SF-539 = assay: NCI 60 cell assay, CNS SF-539; details: Homo sapiens, 48 h; SF-539 (CNS); drug exposure two days, SRB endpoint; read-out: GI-50 value
# Experimental: as §1
# K-562 = assay: NCI 60 cell assay, leukemia K-562; details: Homo sapiens, K562, 48 h; K-562 (leukemia); drug exposure two days, SRB endpoint; read-out: GI-50 value
# Experimental: as §1
Compound,GI50 (HS 578T),GI50 (UACC-62),GI50 (KM12),GI50 (DU-145),GI50 (SNB-75),GI50 (HCC-2998),GI50 (786-0),GI50 (CAKI-1),GI50 (TK-10),GI50 (NCI-H460),GI50 (SK-MEL-28),GI50 (M14),GI50 (SK-MEL-2),GI50 (MALME-3M),GI50 (SW-620),GI50 (OVCAR-5),GI50 (PC-3),GI50 (T-47D),GI50 (NCI-H23),GI50 (RXF 393),other results
"CC1=C2[C@@H](CC1)[C@]1(C)O[C@@](c3ccccc3)(C[C@H]1OC(=O)CO)[C@H]2OC(=O)C=Cc1ccccc1 [(Ir), (3aR,4S,5R,7R,8S)-5-(2-hydroxyacetoxy)-1,4-dimethyl-7-phenyl-2,3,3a,4,5,6,7,8-octahydro-4,7-epoxyazulen-8-yl cinnamate]",0.033 µM,15 µM,16 µM,17 µM,15 µM,15 µM,14 µM,13 µM,23 µM,15 µM,18 µM,17 µM,16 µM,20 µM,21 µM,22 µM,10 µM,11 µM,17 µM,0.027 µM,GI50 (OVCAR-8): 0.26 µM; GI50 (A498): 0.089 µM; GI50 (SNB-19): 22 µM; GI50 (MOLT-4): 12 µM; GI50 (RPMI-8226): 13 µM; GI50 (EKVX): 15 µM; GI50 (NCI-H522): 17 µM; GI50 (SF-295): 14 µM; GI50 (UACC-257): 19 µM; GI50 (CCRF-CEM): 20 µM; GI50 (SF-539): 18 µM; GI50 (K-562): 16 µM
"CC1=C2[C@@H](CC1)[C@]1(C)O[C@@](C(C)C)(C[C@H]1OC(=O)CO)[C@H]2OC(=O)C1CC1c1ccccc1 (stereo partly drawn) [Compound (Ij), (3aR,4S,5R,7R,8S)-5-(2-hydroxyacetoxy)-7-isopropyl-1,4-dimethyl-2,3,3a,4,5,6,7,8-octahydro-4,7-epoxyazulen-8-yl-2-phenylcyclopropane-1-carboxylate]",0.15 µM,12 µM,13 µM,16 µM,15 µM,14 µM,15 µM,12 µM,17 µM,16 µM,17 µM,13 µM,16 µM,17 µM,17 µM,20 µM,9 µM,4.6 µM,15 µM,0.069 µM,GI50 (OVCAR-8): 13 µM; GI50 (A498): 0.27 µM; GI50 (SNB-19): 17 µM; GI50 (MOLT-4): 9 µM; GI50 (RPMI-8226): 13 µM; GI50 (EKVX): 13 µM; GI50 (NCI-H522): 13 µM; GI50 (SF-295): 13 µM; GI50 (UACC-257): 16 µM; GI50 (CCRF-CEM): 18 µM; GI50 (SF-539): 17 µM; GI50 (K-562): 15 µM
"CC1=C2[C@@H](CC1)[C@]1(C)O[C@@](C3CC3)(C[C@H]1OC(=O)CO)[C@H]2OC(=O)C=Cc1ccccc1 [Compound (Is), (3aR,4S,5R,7R,8S)-7-cyclopropyl-5-(2-hydroxyacetoxy)-1,4-dimethyl-2,3,3a,4,5,6,7,8-octahydro-4,7-epoxyazulen-8-yl cinnamate]",0.023 µM,15 µM,17 µM,18 µM,13 µM,17 µM,13 µM,11 µM,19 µM,18 µM,18 µM,17 µM,19 µM,16 µM,20 µM,17 µM,15 µM,14 µM,17 µM,0.014 µM,GI50 (OVCAR-8): 0.054 µM; GI50 (A498): 0.11 µM; GI50 (SNB-19): 19 µM; GI50 (MOLT-4): 16 µM; GI50 (RPMI-8226): 20 µM; GI50 (EKVX): 14 µM; GI50 (NCI-H522): 17 µM; GI50 (SF-295): 17 µM; GI50 (UACC-257): 16 µM; GI50 (CCRF-CEM): 19 µM; GI50 (SF-539): 17 µM; GI50 (K-562): 20 µM
